Source: patent US6214801A, “Imidazo[1,2-a]pyridine C-nucleosides as antiviral agents” (The Regents of the University of Michigan, priority 1999, dated 2001)
Entries after “also recorded” stand apart in the source; their conditions may differ. Read-outs that look alike come from different tables or passages of the source.

Tests used:
HSV-1 = HSV-1 ELISA assay; type: cell-based, herpes simplex virus type 1, KOS strain; details: Human alphaherpesvirus 1; read-out: 50% Inhibitory Concentration IC50, Antiviral Activity, HSV-1 (ELISA assay)
Protocol: (§1) KB cells (available from the American Type Culture Collection (ATCC) 12301 Parklawn Drive, […], Md. 20852 (ATCC CCL 17)), an established human cell line derived from an epidermal oral carcinoma, were grown in minimal essential medium (MEM) (Sigma) with Hanks salts (MEM(H)) supplemented with 5% fetal calf serum. Human foreskin fibroblasts (HFF cells) (provided by the University of Michigan Hospital) and African green monkey kidney cells (BSC-1) (ATTC CCL 26) cells were grown in MEM with Earl salts (MEM(E)) supplemented with 10% fetal bovine serum. Cells were passaged according to conventional procedures and as described in Shipman, C., Jr. et al. (1976) Antimicrob. Agents Chemother. Vol. 9:120 and incorporated herein by reference. Briefly, cells were passaged at 1:2 to 1:10 dilutions according to conventional procedures by using 0.05% trypsin plus 0.02% EDTA in a HEPES buffered salt solution. HFF cells were passaged onlv at 1:2 dilutions.
(§2) A plaque purified isolate, Po, of the Towne strain of HCMV was used in all experiments and was a gift of Dr. Mark Stinski, University of Iowa. The KOS strain of HSV-1 was used and was provided by Dr. Sandra K. Weller, University of Connecticut. Stock preparations of HCMV and HSV-1 were prepared and titered as known to those of skill and the art and described in Turk, S. R. et al. (1987) Antimicrob. Agents Chemother. Vol. 31:544-550 and Shipman, C., Jr., et al. (1990) J. Virol. Methods Vol. 28:101-106, each incorporated herein by reference.
Briefly, high titer HSV-1 stocks were prepared as follows. Nearly confluent monolayer cultures of KB cells were grown in 32 oz. glass bottles containing MEM(E) buffered with 25 mM HEPES and supplemented with 5% fetal bovine serum and 0.127 giliter L-arginine (VGM, virus growth medium). The cultures were infected at a low input multiplicity to reduce the formation of defective virus. After cell cytopathology reached "three to four plus", the cells were harvested by vigorous shaking, and concentrated by centrifugation (800×g for 5 min.). The resulting virus pools were stored at -760C until retrieved for use in experiments.
HSV-1 was titered using monolayer cultures of BSC-1 cells. Cells were planted at 3×10^5 cells/well using 6-well cluster dishes. MEM(E) supplemented with 10% fetal bovine serum was employed as medium. After 22-24 h, cells were 90% confluent and were inoculated in triplicate using at least three ten-fold dilutions with 0.2 ml of the virus suspension to be assayed and incubated in a humidified 4% CO2 -[…] atmosphere for one hour to permit viral adsorption. Following virus adsorption, the cell sheet was overlayed with 5 ml of MEM(E) with 5% serum plus 0.5% methocel (4000 CPS) and incubated an additional two to three days. Cells were fixed and stained with 0.1% crystal violet in 20% methanol and macroscopic plaques enumerated.
(§3) HCMV plaque reduction experiments were performed with monolayer cultures of HFF cells by a procedure similar to that referenced above for titration of the viruses and described in Devivar, R. V. et al. (1994) J. Med. Chem. Vol. 37:2942-2949. Activity of compounds against HSV-1 was evaluated using an ELISA assay.
ELISA techniques according to standard procedures were also used to determine activity against HSV-1. Drug effects were calculated as a percentage of the reduction in virus titers in the presence of each drug concentration compared to the titer obtained in the absence of drug. Ganciclovir was used as a positive control in all experiments.

[1] = Growth cytotoxicity in KB cells (crystal violet staining); type: cell-based; details: human, two population doubling times, read-out: 50% Inhibitory Concentration IC50, Cytotoxicity, Growth (KB cells)
Protocol: as §1
(§4) Two different methods were used to evaluate cytotoxicity of the compounds. First, cytotoxicity produced in stationary HFF cells was determined by microscopical examination of cells not affected by the virus used in the plaque assay. Second the effect of compounds on KB cells during two population doubling times was determined by crystal violet staining and spectrophotometric quantitation of dye eluted from stained cells. This method has been utilized for the analysis of ganciclovir and zidovudine (See Prichard, M. N. et al. Antiviral Res. (1991) Vol. 35:1060-1065).

HIV-1 = HIV-1 replication, reverse transcriptase (RT) assay in CEM cells; type: cell-based, HIV-1 strain IIIB; details: CEM cells, strain IIIB
Protocol: (§5) CEM cells and strain IIIB of HIV-1 were obtained through courtesy of Dr. Louis S. Kurcera, Boman Gray School of Medicine, Wake Forest University. CEM cells were grown in suspension culture and passaged through conventional procedures.
The activity of compounds against HIV-1 replication was determine by using reverse transcriptase (RT) as a marker for HIV-1. Strain IIIB of HIV-1 was grown in CEM cells maintained in suspension culture as detailed previously (see Kucera et al. AIDS Res. Human Retroviruses, 1993, Vol. 9, pp. 307-314). The assay measured the presence of HIV in supernatants of infected CEM cells by determining the amount of RT activity. Cells were grown, infected with HIV-1, and incubated in the presence of seven concentrations (one-half log10 dilutions) of the test compounds beginning at 1 or 100 μM concentration, depending on the compound to be assayed. Procedures and the RT assay were performed as detailed previously (see White et al., Antiviral Res. 1991, Vol. 16, pp. 257-266).

HCMV [2] = assay: HCMV plaque (focus) reduction assay in HFF cells; type: cell-based; details: read-out: 50% Inhibitory Concentration IC50, Antiviral Activity, HCMV (plaque assay in HFF cells)
Protocol: as §1, §2
Stock HCMV was prepared by infecting HFF cells at a multiplicity of infection (m.o.i.) of less that 0.01 plaque-forming units (p.f.u.) per cell. Cell growth medium was changed every four days until cytopathology was evident in all cells (approximately 21 days). Supernatant fluids were retained as the virus stock. Four days later, the remaining cells were disrupted by three cycles of freeze-thawing and the cell plus medium held as an additional source of virus. Storage was in liquid nitrogen.
HCMV was titered in 24-well cluster dishes which were plated to contain 5×10^4 HFF cells/well, grown as described above. When the cells were 70 to 80% confluent, 0.2 ml of the virus suspension was added per well and adsorbed as described above. At least three ten-fold dilutions of each preparation were used. Following virus adsorption, the cell sheets were overlayed with 0.5% methocel (4000 CPS) in maintenance medium [MEM(E) with 1.1 g/liter NaHCO3, 100 units/ml penicillin G, 100 μg/ml streptomycin, and 5% fetal bovine serum]. The cultures were incubated in a humidified atmosphere of 4% CO2 -96% air. Viral plaques were visible 5 to 7 days after infection using at least 10-fold magnification. Cells were fixed and stained by a 10-minute exposure to a 0.1% solution of crystal violet in 20% methanol 7 to 12 days after infection. Microscopic foci were enumerated at 20-fold magnification using a Nikon Profile Projector.
as §3
The effect of compounds of the replication of HCMV was measured using a plaque (focus) reduction assay. For the former, HFF cells in 24-well culture dishes were infected with approximately 50 p.f.u. of HCMV per well using the procedures detailed above. Compounds dissolved in growth medium were added in four to six selected concentrations to duplicate wells following virus adsorption. Following incubation at 37 °C for 7 to 10 days, cell sheets were fixed, stained and microscopic plaques were enumerated as described above. Drug effects were calculated as a percentage of reduction in number of plaques in the presence of each drug concentration compared to the number observed in the absence of drug. […]

in vitro = type: cell-based, human; details: human, hff cells
Protocol: as §1, §4

[3] = Growth cytotoxicity in CEM cells; type: cell-based; details: human, read-out: 50% Inhibitory Concentration IC50, Cytotoxicity, Growth (CEM cells)
Protocol: as §5

[4] = background; cited from earlier work
HCMV [5] = details: background; cited from earlier work

SMILES | IC50 (HSV-1) | CC50 [1] | 50% Inhibitory Concentration IC50, Antiviral Activity, HIV-1 (RT Assay) (HIV-1) | IC50 (HCMV [2]; Human betaherpesvirus 5, HFF) | CC50 (in vitro) | CC50 [3] | cytotoxicity of known compounds (in words) [4] | antiviral activity of known compounds (in words) (HCMV [5]) | IC50 (HCMV [2]; Human betaherpesvirus 5, HFF cells, 7 to 10 days)
OC[C@@H]1C=C[C@H](c2c(Cl)nc3cc(Cl)c(Cl)cn23)O1 [Compound 76, 2,6,7-Trichloro-3-(2',3'-dideoxy-2',3'-didehydro-β-D-ribofuranosyl) imidazo[1,2-a] pyridine] | > 100 µM | > 100 µM | 14/25 | 32 µM | 100 µM | > 100 µM | – | – | –
OC[C@H]1O[C@@H](n2cnc3cc(Cl)c(Cl)cc32)[C@H](O)[C@@H]1O [DRB, 5,6-dichloro-1-(β-D-ribofuranosyl) benzimidazole] | – | – | – | – | – | – | generally unacceptable levels of cytotoxicity | only marginal levels of activity | –
OC[C@H]1O[C@@H](n2c(Cl)nc3cc(Cl)c(Cl)cc32)[C@H](O)[C@@H]1O [TCRB, 2,5,6-trichloro-1-(2'-β-D-ribofuranosyl)benzimidazole] | – | – | – | – | 15 µM | – | low cellular toxicity at concentrations inhibiting viral growth | useful against HCMV infections; also recorded: very potent activity against HCMV | 9.5 µM
